Laboratory results as given in PubChem BioAssay (NCI).
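Cultured in 96-well plates, cells were exposed to test compound for 48 hours across five concentrations. Here, GI50 denotes the concentration required for 50% inhibition of growth. At the TGI there is no net growth.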

Experiments:
Assay in all cases: growth of human tumour cells (NCI), 48 h
HL-60(TB) leukemia = test system: HL-60(TB) leukemia
HOP-92 NSCLC = test system: HOP-92 NSCLC
NCI-H23 lung = test system: NCI-H23 lung
TK-10 renal = test system: TK-10 renal
NCI-H226 lung = test system: NCI-H226 lung
HCC-2998 colon = test system: HCC-2998 colon
A498 renal = test system: A498 renal
LOX IMVI melanoma = test system: LOX IMVI melanoma
HCT-116 colon = test system: HCT-116 colon
SK-MEL-2 melanoma = test system: SK-MEL-2 melanoma
UO-31 renal = test system: UO-31 renal
CCRF-CEM leukemia = test system: CCRF-CEM leukemia
SR leukemia = test system: SR leukemia
SK-MEL-28 melanoma = test system: SK-MEL-28 melanoma
PC-3 prostate = test system: PC-3 prostate
HCT-15 colon = test system: HCT-15 colon
SF-539 CNS = test system: SF-539 CNS
SF-268 CNS = test system: SF-268 CNS
OVCAR-5 ovarian = test system: OVCAR-5 ovarian
COLO 205 colon = test system: COLO 205 colon
SNB-19 CNS = test system: SNB-19 CNS
NCI-H460 lung = test system: NCI-H460 lung
OVCAR-3 ovarian = test system: OVCAR-3 ovarian
UACC-257 melanoma = test system: UACC-257 melanoma
U251 CNS = test system: U251 CNS
A549 NSCLC = test system: A549 NSCLC
SW-620 colon = test system: SW-620 colon
ACHN renal = test system: ACHN renal
RPMI-8226 leukemia = test system: RPMI-8226 leukemia
SK-MEL-5 melanoma = test system: SK-MEL-5 melanoma
IGROV1 ovarian = test system: IGROV1 ovarian
NCI/ADR-RES ovarian = test system: NCI/ADR-RES ovarian
SNB-75 CNS = test system: SNB-75 CNS
CAKI-1 renal = test system: CAKI-1 renal
OVCAR-4 ovarian = test system: OVCAR-4 ovarian
SN12C renal = test system: SN12C renal
HOP-62 NSCLC = test system: HOP-62 NSCLC
MDA-MB-435 = test system: MDA-MB-435
SF-295 CNS = test system: SF-295 CNS
M14 melanoma = test system: M14 melanoma
T-47D breast = test system: T-47D breast
MDA-MB-231 breast = test system: MDA-MB-231 breast
HS 578T breast = test system: HS 578T breast
KM12 colon = test system: KM12 colon
MOLT-4 leukemia = test system: MOLT-4 leukemia
MALME-3M melanoma = test system: MALME-3M melanoma
786-0 renal = test system: 786-0 renal
DU-145 prostate = test system: DU-145 prostate
EKVX NSCLC = test system: EKVX NSCLC
SK-OV-3 ovarian = test system: SK-OV-3 ovarian
OVCAR-8 ovarian = test system: OVCAR-8 ovarian
BT-549 breast = test system: BT-549 breast
UACC-62 melanoma = test system: UACC-62 melanoma
MCF7 breast = test system: MCF7 breast
NCI-H522 lung = test system: NCI-H522 lung
HT29 colon = test system: HT29 colon
K-562 leukemia = test system: K-562 leukemia
RXF 393 renal = test system: RXF 393 renal

In the case of `C=C(C)[C@@H]1/C=C(/C(C)C)CC[C@@]2(C)OC2CC[C@H](C)CC1=O` (stereo not given in full), the GI50 (HL-60(TB) leukemia) is reported as 25 µM, the TGI (HL-60(TB) leukemia) is reported as 76.2 µM and the GI50 (HOP-92 NSCLC) is reported as 26.3 µM. The TGI (HOP-92 NSCLC) was > 76.7 µM, the GI50 (NCI-H23 lung) was 21.2 µM and the TGI (NCI-H23 lung) was 43.9 µM. For the same molecule, the GI50 (TK-10 renal) was 27.6 µM, the TGI (TK-10 renal) was > 79.4 µM and the GI50 (NCI-H226 lung) was > 38.8 µM. The TGI (NCI-H226 lung) was > 66.9 µM, the GI50 (HCC-2998 colon) was > 44.4 µM and the TGI (HCC-2998 colon) was > 65.9 µM. The GI50 (A498 renal) was 31.6 µM, the TGI (A498 renal) was > 93.2 µM and the GI50 (LOX IMVI melanoma) was 22.4 µM. The TGI (LOX IMVI melanoma) was > 57.7 µM, the GI50 (HCT-116 colon) was 17.3 µM and the TGI (HCT-116 colon) was 31.7 µM. For the same molecule, the GI50 (SK-MEL-2 melanoma) was 52.1 µM, the TGI (SK-MEL-2 melanoma) was > 100 µM and the GI50 (UO-31 renal) was 23.2 µM. The TGI (UO-31 renal) was > 55.7 µM, the GI50 (CCRF-CEM leukemia) was 20.3 µM and the TGI (CCRF-CEM leukemia) was 52.3 µM. The GI50 (SR leukemia) was 2.18 µM, the GI50 (SK-MEL-28 melanoma) was 59.3 µM and the TGI (SK-MEL-28 melanoma) was > 100 µM. It also gave a GI50 (PC-3 prostate) of 22.2 µM, a TGI (PC-3 prostate) of 54.3 µM and a GI50 (HCT-15 colon) of 38.6 µM. The TGI (HCT-15 colon) was > 68.6 µM, the GI50 (SF-539 CNS) was 21.9 µM and the TGI (SF-539 CNS) was 42.7 µM. The GI50 (SF-268 CNS) was 37.7 µM, the TGI (SF-268 CNS) was > 100 µM and the GI50 (OVCAR-5 ovarian) was > 43.5 µM. The TGI (OVCAR-5 ovarian) was > 63.5 µM, the GI50 (COLO 205 colon) was 24.9 µM and the TGI (COLO 205 colon) was > 61 µM. For the same molecule, the GI50 (SNB-19 CNS) was 60 µM, the TGI (SNB-19 CNS) was > 100 µM and the GI50 (NCI-H460 lung) was 18.7 µM. The TGI (NCI-H460 lung) was 37.7 µM, the GI50 (OVCAR-3 ovarian) was 24.8 µM and the TGI (OVCAR-3 ovarian) was 66.1 µM. The GI50 (UACC-257 melanoma) was 47.6 µM, the TGI (UACC-257 melanoma) was > 100 µM and the GI50 (U251 CNS) was 27.6 µM. For the same molecule, the TGI (U251 CNS) was > 62.2 µM, the GI50 (A549 NSCLC) was 28.8 µM and the TGI (A549 NSCLC) was > 100 µM. The GI50 (SW-620 colon) was 25.4 µM, the TGI (SW-620 colon) was 65.7 µM and the GI50 (ACHN renal) was 27.5 µM. The TGI (ACHN renal) was > 55 µM, the GI50 (RPMI-8226 leukemia) was 20.1 µM and the TGI (RPMI-8226 leukemia) was 54.1 µM. The GI50 (SK-MEL-5 melanoma) was 19.4 µM, the TGI (SK-MEL-5 melanoma) was 37.9 µM and the GI50 (IGROV1 ovarian) was 24.7 µM. The TGI (IGROV1 ovarian) was > 63.3 µM, the GI50 (NCI/ADR-RES ovarian) was 25.4 µM and the TGI (NCI/ADR-RES ovarian) was 59.8 µM. For the same molecule, the GI50 (SNB-75 CNS) was > 100 µM, the TGI (SNB-75 CNS) was > 100 µM and the GI50 (CAKI-1 renal) was 24.1 µM. The TGI (CAKI-1 renal) was 53.8 µM, the GI50 (OVCAR-4 ovarian) was 73.8 µM and the TGI (OVCAR-4 ovarian) was > 100 µM. For the same molecule, the GI50 (SN12C renal) was 21 µM, the TGI (SN12C renal) was 46 µM and the GI50 (HOP-62 NSCLC) was 30.3 µM. For the same molecule, the TGI (HOP-62 NSCLC) was > 57.9 µM, the GI50 (MDA-MB-435) was 26.6 µM and the TGI (MDA-MB-435) was 71.6 µM. For the same molecule, the GI50 (SF-295 CNS) was 27.4 µM, the TGI (SF-295 CNS) was > 71.6 µM and the GI50 (M14 melanoma) was 30.8 µM. The TGI (M14 melanoma) was > 62.8 µM, the GI50 (T-47D breast) was 27.4 µM and the TGI (T-47D breast) was > 80.3 µM. For the same molecule, the GI50 (MDA-MB-231 breast) was 19.3 µM, the TGI (MDA-MB-231 breast) was 49.5 µM and the GI50 (HS 578T breast) was 46 µM. The TGI (HS 578T breast) was > 100 µM, the GI50 (KM12 colon) was 18.6 µM and the TGI (KM12 colon) was 39.7 µM. For the same molecule, the GI50 (MOLT-4 leukemia) was 16.3 µM, the TGI (MOLT-4 leukemia) was 40.9 µM and the GI50 (MALME-3M melanoma) was 35.3 µM. For the same molecule, the TGI (MALME-3M melanoma) was > 100 µM, the GI50 (786-0 renal) was > 42.8 µM and the TGI (786-0 renal) was > 59.6 µM. For the same molecule, the GI50 (DU-145 prostate) was 19.4 µM, the TGI (DU-145 prostate) was 36 µM and the GI50 (EKVX NSCLC) was 52.1 µM. For the same molecule, the TGI (EKVX NSCLC) was > 100 µM, the GI50 (SK-OV-3 ovarian) was > 100 µM and the TGI (SK-OV-3 ovarian) was > 100 µM. For the same molecule, the GI50 (OVCAR-8 ovarian) was 33.9 µM, the TGI (OVCAR-8 ovarian) was > 70.5 µM and the GI50 (BT-549 breast) was 38.8 µM. For the same molecule, the TGI (BT-549 breast) was > 100 µM, the GI50 (UACC-62 melanoma) was > 100 µM and the TGI (UACC-62 melanoma) was > 100 µM. For the same molecule, the GI50 (MCF7 breast) was 27.7 µM, the TGI (MCF7 breast) was > 63.8 µM and the GI50 (NCI-H522 lung) was 31.2 µM. For the same molecule, the TGI (NCI-H522 lung) was > 93.5 µM, the GI50 (HT29 colon) was 31.6 µM and the TGI (HT29 colon) was 98.8 µM. For the same molecule, the GI50 (K-562 leukemia) was 19.7 µM, the TGI (K-562 leukemia) was 58.6 µM and the GI50 (RXF 393 renal) was 3.37 µM. For the same molecule, the TGI (RXF 393 renal) was > 49.1 µM.
